In US11172681B2 (priority 2017, dated 2021):

What was measured:
[1] = Physicochemical stability test (thermal storage of technical material in ovens for 2 months); conditions: for Stability at different temperatures: 25-70° C.; for Purity after thermal storage: HPLC
Procedure: Thereafter, technical materials of the two crystalline forms were placed into ovens with temperatures of 25° C., 40° C., 55° C. and 70° C. respectively and left there for 2 months for thermal storage test.

[2] = Synergistic effect with other herbicides

In the case of `Cc1nn(C)cc1C(=O)Oc1c(C(=O)c2ccc(C(F)(F)F)cc2S(C)(=O)=O)c(C)nn1C` [Crystalline form A of shuangzuocaotong, 1,3-Dimethyl-1H-pyrazole-4-carboxylic acid 4-[2-methanesulfonyl-4-trifluoromethyl-benzoyl]-1,3-dimethyl-1H-pyrazol-5-yl ester], the “Stability at different temperatures” value [1] is reported as “good stability”, the “Crystalline form after thermal storage” value ([1]; 25° C.) is reported as “Crystalline form A” and the “Purity after thermal storage” value ([1]; 25° C.) is reported as 96.0%. For the same molecule, the “Crystalline form after thermal storage” value ([1]; 40° C.) was “Crystalline form A”, the “Purity after thermal storage” value ([1]; 40° C.) was 95.5% and the “Crystalline form after thermal storage” value ([1]; 55° C.) was “Crystalline form A”. The “Purity after thermal storage” value ([1]; 55° C.) was 95.1%, the “Crystalline form after thermal storage” value ([1]; 70° C.) was “Crystalline form A” and the “Purity after thermal storage” value ([1]; 70° C.) was 94.2%.

In the case of `Cc1nn(C)cc1C(=O)Oc1c(C(=O)c2ccc(C(F)(F)F)cc2S(C)(=O)=O)c(C)nn1C` [Crystalline form C of shuangzuocaotong, 1,3-Dimethyl-1H-pyrazole-4-carboxylic acid 4-[2-methanesulfonyl-4-trifluoromethyl-benzoyl]-1,3-dimethyl-1H-pyrazol-5-yl ester], the “Synergistic effect with one or more listed herbicides” value [2] is reported as “obvious synergistic effect”, the “Stability at different temperatures” value [1] is reported as “good stability” and the “Crystalline form after thermal storage” value ([1]; 25° C.) is reported as “Crystalline form C”. For the same molecule, the “Purity after thermal storage” value ([1]; 25° C.) was 96.0%, the “Crystalline form after thermal storage” value ([1]; 40° C.) was “Crystalline form C” and the “Purity after thermal storage” value ([1]; 40° C.) was 95.8%. The “Crystalline form after thermal storage” value ([1]; 55° C.) was “Crystalline form C”, the “Purity after thermal storage” value ([1]; 55° C.) was 95.7% and the “Crystalline form after thermal storage” value ([1]; 70° C.) was “Crystalline form C”. For the same molecule, the “Purity after thermal storage” value ([1]; 70° C.) was 95.2%.
